Data from patent publication US9340575B2, “Agonists and antagonists of the urotensinergic system” (INSTITUT NATIONAL DE LA RECHERCHE SCIENTIFIQUE, priority 2011, dated 2016).

Target: T1, human urotensin II receptor (UT) (Homo sapiens, UniProt Q9UKP6)
T1 construct: expressed in transfected cells; host or cells: CHO cells (CHO-UT), stably transfected, G418 selection
T1 sequence (Q9UKP6 1-389): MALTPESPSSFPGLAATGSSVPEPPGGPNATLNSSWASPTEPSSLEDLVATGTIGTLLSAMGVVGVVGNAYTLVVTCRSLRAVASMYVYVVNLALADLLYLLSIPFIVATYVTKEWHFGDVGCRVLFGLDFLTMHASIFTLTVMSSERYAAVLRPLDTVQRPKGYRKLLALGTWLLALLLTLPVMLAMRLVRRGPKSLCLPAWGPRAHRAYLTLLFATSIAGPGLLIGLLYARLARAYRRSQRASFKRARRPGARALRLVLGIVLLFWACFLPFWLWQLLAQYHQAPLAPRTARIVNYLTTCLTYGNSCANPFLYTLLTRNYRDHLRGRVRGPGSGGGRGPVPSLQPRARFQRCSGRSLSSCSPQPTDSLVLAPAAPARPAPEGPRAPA
Test: Competitive radioligand binding on CHO-UT cells
Conditions: for IC50: recombinant human UT
Protocol: Transfected CHO cells expressing the human urotensin receptor (CHO-UT) were maintained in Ham-F12 medium with 10% fetal bovine serum (FBS), 2 mM L-glutamine, 100 UI/mL each of penicillin and streptomycin, and 400 μg/mL G418. […] Binding assays were following known literature procedures using CHO cells stably transfected with hGPR14. […] After 90 min of incubation at room temperature, cells were washed, lysed, and the cell-bound radioactivity was quantified using a γ-counter. […] The cells were then washed, lysed, and the radioactivity counted on a γ-counter (1470 Automatic Gamma Counter, Perkin Elmer). Binding and functional experiments were performed at least in triplicate and data, expressed as mean±S.E.M, were analyzed using the Prism software (Graph Pad Software, San Diego, Calif.). In all experiments, n represents the total number of animals studied or individual assays performed. The EC50, pEC50, pIC50 values as well as the Emax value were determined from the concentration-response curves using a sigmoidal dose-response fit with variable slope. […] The slope is calculated from the double reciprocal plot of equiactive concentrations of agonist in the presence and absence of antagonist.

IC50 (Binding (125I-URP) IC50 (nM), radioligand 125I-URP): 339 nM | IC50 (Binding (125I-hUII) IC50 (nM), radioligand 125I-hUII): 386 nM | Displacement of both radioligands (125I-hUII and 125I-URP) (CHO-UT cells): 100%
SMILES: CC(C)[C@H](NC(=O)[C@@H]1CSSC[C@H](NC(=O)[C@H](C)N)C(=O)N[C@@H](Cc2ccccc2)C(=O)N[C@@H](Cc2ccc(-c3ccccc3)cc2)C(=O)N[C@@H](CCCCN)C(=O)N[C@@H](Cc2ccc(O)cc2)C(=O)N1)C(=O)O [[Bip^4]URP, H-Ala-Cys-Phe-Bip-Lys-Tyr-Cys-Val-OH]
